Assay results taken from patent publication US20110243924A1, “NOVEL METHODS” (priority 2007, published 2011).

Tests used:
[1] = tested on: Men with COPD; experiment: Clinical Phase II study, single inhaled doses by dry powder inhaler; type: in vivo, human; conditions: for mean FEV1 AUC(0-24)/24: placebo 1.597 L
Excerpt: Clinical Phase […] study: A double-blind, randothised, placebo-controlled, cross-over trial assesses the pharmacodynamics, pharmacokinetics and tolerability of aclidinium and its effects in COPD patients
Lung function measurements include FEV1 and FVC.

[2] = target: T1, M1 human muscarinic receptor (Homo sapiens, UniProt P11229); experiment: Binding of aclidinium metabolites to muscarinic receptors
T1 sequence (P11229 1-460): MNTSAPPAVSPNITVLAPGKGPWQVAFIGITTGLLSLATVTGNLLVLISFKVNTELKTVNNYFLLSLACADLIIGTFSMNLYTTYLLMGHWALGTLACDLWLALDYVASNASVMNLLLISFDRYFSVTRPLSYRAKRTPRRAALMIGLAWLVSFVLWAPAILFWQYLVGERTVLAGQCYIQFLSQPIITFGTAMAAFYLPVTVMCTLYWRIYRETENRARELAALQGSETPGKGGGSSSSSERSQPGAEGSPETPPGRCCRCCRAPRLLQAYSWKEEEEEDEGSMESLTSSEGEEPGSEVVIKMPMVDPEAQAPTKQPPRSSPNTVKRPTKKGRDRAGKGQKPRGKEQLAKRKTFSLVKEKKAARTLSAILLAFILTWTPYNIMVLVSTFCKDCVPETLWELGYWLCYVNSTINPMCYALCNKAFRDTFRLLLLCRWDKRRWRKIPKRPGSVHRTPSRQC
Protocol: (§1) Aclidinium is rapidly hydrolyzed in human plasma in its alcohol and acid metabolites. […] The plasma half life of aclidinium in plasma is lower than 5 minutes for human. Moreover, aclidinium is stable in acid aqueous solutions (pH≦4) and the hydrolytic cleavage of the ester bond takes place at neutral and basic pHs.

[3] = target: T2, M2 human muscarinic receptor (Homo sapiens, UniProt P08172); experiment: as above
T2 sequence (P08172 1-466): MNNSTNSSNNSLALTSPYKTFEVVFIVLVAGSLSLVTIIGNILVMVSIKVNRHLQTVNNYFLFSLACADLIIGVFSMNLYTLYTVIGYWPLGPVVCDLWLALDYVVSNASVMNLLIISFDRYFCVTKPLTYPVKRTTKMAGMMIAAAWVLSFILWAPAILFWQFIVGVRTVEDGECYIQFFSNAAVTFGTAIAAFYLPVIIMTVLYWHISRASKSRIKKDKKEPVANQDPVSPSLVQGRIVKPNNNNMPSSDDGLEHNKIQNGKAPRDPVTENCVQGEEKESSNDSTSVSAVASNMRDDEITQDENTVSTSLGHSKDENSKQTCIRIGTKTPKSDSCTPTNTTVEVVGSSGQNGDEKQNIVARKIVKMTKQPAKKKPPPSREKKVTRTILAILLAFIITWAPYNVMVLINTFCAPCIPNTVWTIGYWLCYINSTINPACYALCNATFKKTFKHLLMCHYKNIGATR
Protocol: as §1

[4] = target: M3 human muscarinic receptor (Homo sapiens, UniProt P20309); experiment: as above
Chain of M3 human muscarinic receptor (P20309 whole entry): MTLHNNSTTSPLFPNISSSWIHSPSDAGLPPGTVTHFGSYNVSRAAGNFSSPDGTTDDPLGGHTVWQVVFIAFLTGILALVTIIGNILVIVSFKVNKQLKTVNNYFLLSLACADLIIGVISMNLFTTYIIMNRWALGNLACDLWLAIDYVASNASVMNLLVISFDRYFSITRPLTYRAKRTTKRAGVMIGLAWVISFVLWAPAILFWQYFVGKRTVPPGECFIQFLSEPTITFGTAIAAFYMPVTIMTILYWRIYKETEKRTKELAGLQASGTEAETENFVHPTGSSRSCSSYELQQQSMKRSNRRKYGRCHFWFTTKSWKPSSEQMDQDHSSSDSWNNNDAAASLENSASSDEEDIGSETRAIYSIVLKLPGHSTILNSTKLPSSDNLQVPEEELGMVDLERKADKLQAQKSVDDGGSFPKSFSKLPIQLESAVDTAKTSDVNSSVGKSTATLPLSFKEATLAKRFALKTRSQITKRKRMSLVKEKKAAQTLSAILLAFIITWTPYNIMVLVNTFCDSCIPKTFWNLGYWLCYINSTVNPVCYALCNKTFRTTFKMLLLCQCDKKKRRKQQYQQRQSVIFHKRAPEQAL
Protocol: as §1

[5] = target: T3, M4 human muscarinic receptor (Homo sapiens, UniProt P08173); experiment: as above
T3 sequence (P08173 1-479): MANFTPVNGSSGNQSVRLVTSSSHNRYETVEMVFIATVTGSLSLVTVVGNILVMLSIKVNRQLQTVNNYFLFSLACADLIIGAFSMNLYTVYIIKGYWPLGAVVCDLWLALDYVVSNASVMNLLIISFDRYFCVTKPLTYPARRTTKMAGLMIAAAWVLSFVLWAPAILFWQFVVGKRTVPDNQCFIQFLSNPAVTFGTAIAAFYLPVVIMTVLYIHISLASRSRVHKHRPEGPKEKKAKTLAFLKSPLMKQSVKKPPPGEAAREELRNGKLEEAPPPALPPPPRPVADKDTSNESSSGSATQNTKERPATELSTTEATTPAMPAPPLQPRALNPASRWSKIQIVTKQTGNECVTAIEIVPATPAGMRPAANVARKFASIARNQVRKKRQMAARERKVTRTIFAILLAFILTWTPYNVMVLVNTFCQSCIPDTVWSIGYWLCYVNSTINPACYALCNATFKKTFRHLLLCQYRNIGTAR
Protocol: as §1

[6] = Stability in aqueous solutions; type: physicochemical; conditions: pH≦4
Protocol: as §1

[7] = In vitro stability in human plasma; type: in vitro ADME; conditions: human plasma (lithium heparin), 36° C.
Protocol: The in vitro experiments are carried out at 36° C. and at a concentration of 5 μg/ml (6 μl of a 1 mg/ml dimethyl sulfoxide solution of each substance is added to a final volume of 1.2 ml). After 3 minutes of pre-incubation, reaction is started by addition of the test substances. At pre-defined times of 0, 5, 15, 30 and 60 min., aliquots of 100 μl of the plasma are separated and the reaction stopped by the addition of 1 ml of a 20 mM, pH 4.0 sodium acetate buffer solution. The test substances are replaced with buffer for the control reactions. Human plasma is obtained from volunteers by written informed consent. The blood is collected in tubes containing lithium heparin as anticoagulant, immediately centrifuged at 4° C. and the resultant plasma stored at −20° C. when not in use.
Plasma samples, previously diluted with 1 ml of a 20 mM, pH 4.0 sodium acetate buffer solution, were loaded into the C2 cartridges. […] There are no significant endogenous peaks at retention times of the analytes that would interfere with their quantitation. […] The lower limit of quantitation is established at 5 mg/ml for all analytes.

[8] = tested on: healthy male volunteers; experiment: Clinical Phase I study, single inhaled doses by dry powder inhaler; type: in vivo, human
Protocol: Clinical Phase I study: Aclidinium bromide is tested in a Phase I, double-blind, partial cross-over, placebo controlled study to assess the activity, pharmacokinetics and tolerability of aclidinium.
Methods: 12 healthy male volunteers are randomly assigned to 1 of 4 treatment sequences comprising single doses of aclidinium (50, 300 and 600 micrograms) or placebo administered by dry powder inhaler. The washout period between administrations is at least 6 days. Efficacy endpoints are specific airway conductance (sGaw), airway resistance (Raw) and bronchial hyperresponsiveness (PC35 sGaw methacholine).

[9] = after inhaled single doses 100, 300, 900 micrograms

Row | SMILES | plasma levels ([1]; following the 900 microgram dose) | affinity for M1 human muscarinic receptor [2] | affinity for M2 human muscarinic receptor [3] | affinity for M3 human muscarinic receptor [4] | affinity for M4 human muscarinic receptor [5] | mean FEV1 AUC(0-24)/24 ([1]; aclidinium 100 micrograms, p=0.002) | mean FEV1 AUC(0-24)/24 ([1]; aclidinium 300 micrograms, p<0.0001) | mean FEV1 AUC(0-24)/24 ([1]; aclidinium 900 micrograms) | plasma levels [1, 9] | cases of mildly increased sweating possibly related to treatment ([1]; human, in vivo) | tolerability ([1]; single inhaled doses 100-900 micrograms) | cases of mild or moderate headache possibly related to treatment ([1]; vs 2 with placebo) | stability in acid aqueous solutions [6] | half-life at 5 μg/ml [7] | PC35 sGaw methacholine (methacholine dose required to decrease sGaw) ([8]; aclidinium 300 micrograms, at 2 h, placebo 35.5) | PC35 sGaw methacholine (methacholine dose required to decrease sGaw) ([8]; aclidinium 300 micrograms, at 24 h, placebo 27.1) | PC35 sGaw methacholine (methacholine dose required to decrease sGaw) ([8]; aclidinium 600 micrograms, at 2 h, placebo 35.5) | PC35 sGaw methacholine (methacholine dose required to decrease sGaw) ([8]; aclidinium 600 micrograms, at 24 h, placebo 27.1) | detection in plasma ([8]; after inhaled single doses 50-600 micrograms) | study-drug-related adverse events ([8]; single inhaled doses 50-600 micrograms)
1 | O=C(O)C(O)(c1cccs1)c1cccs1 [acid metabolite] | low levels | devoid of significant affinity | devoid of significant affinity | devoid of significant affinity | devoid of significant affinity | – | – | – | – | – | – | – | – | – | – | – | – | – | – | –
2 | O=C(O[C@H]1C[N+]2(CCCOc3ccccc3)CCC1CC2)C(O)(c1cccs1)c1cccs1 [aclidinium, 3(R)-(2-hydroxy-2,2-dithien-2-ylacetoxy)-1-(3-phenoxypropyl)-1-azoniabicyclo[2.2.2]octane] | – | – | – | – | – | 1.800 L | 1.798 L | 1.827 L | No plasma levels | 1 | well tolerated | 6 cases | stable | < 5 min | 207.1 mg/mL | 142.7 mg/mL | 256.0 mg/mL | 181.7 mg/mL | Neither aclidinium nor its metabolites are detected | no study-drug-related adverse events
3 | O[C@H]1C[N+]2(CCCOc3ccccc3)CCC1CC2 [alcohol metabolite] | – | devoid of significant affinity | devoid of significant affinity | devoid of significant affinity | devoid of significant affinity | – | – | – | No plasma levels | – | – | – | – | – | – | – | – | – | – | –
